Columns and labels:
[1] = cited from earlier work
[2] = tested on: RM-1 tumours; experiment: GDEPT on subcutaneous tumours from RM-1 cells pre-transduced in vitro; assay type: in vivo, mouse; settings: day 15; Fludarabine alone 600 mg/m^2/day compared with nil treatment
Description: RM-1 cells (3×10^7) were transduced in culture with 1×10^3 or 1×10^2 VP/cell of OAdV220 or mock transduced with virus dilution buffer on day −1. On day 0, 12 mice/group were subcutaneously injected with 2.5×10^5 virus- or mock-transduced cells. Fludarabine was then administered from days 1-5 at 600 mg/m^2/day. Tumour volume and animal survival were monitored three times per week. A line of best fit was generated for each treatment curve and the ability to suppress tumour growth or increase animal survival was determined from the days taken to reach the midpoint of tumour growth or animal survival respectively.

[3] = tested on: intraprostatic RM-1 tumours; experiment: GDEPT ± lipid on intraprostatic RM-1 tumours; assay type: in vivo, mouse; settings: day 18; relative to the equivalent non-fludarabine treated tumours; fludarabine 600 mg/m^2/day ip
Description: In order to mimic clinical prostate cancer in an immunocompetent animal model, on day 1 RM-1 tumours were established in the prostate of C57BL/6 mice by intraprostatic injection of 5×10^3 RM-1 cells (˜50 μl cell suspension) per mouse. On day 4, these mice received an intraprostatic injection of 1×10^10 VP/tumour of OAdV220, either alone or formulated with 10 μM CS87 (see groups below). Fludarabine was then administered ip at 600 mg/m^2/day to appropriate groups from days 5-10. On day 6, pseudometastases were induced in the lungs by intravenous injection of 2.5×10^5 RM-1 cells (˜50 μl cell suspension) per mouse. Due to the limitations of surgery only 30 intraprostate injections can be performed per day. The experiment was therefore set up on 4 different days, although care was taken not to upset the timing of the experiment. The mice were weighed twice weekly, and sacrificed on day 18. Tissues were harvested for analysis (prostate volume, prostate weights).
Treatment groups were as follows:
Group A OAdV220 alone±fludarabine
Group B Nil treatment (storage buffer)±fludarabine
Group C OAdV220 plus […] CS87±fludarabine
Group D 10 μM CS87 alone±fludarabine

[4] = tested on: PC3 tumours; experiment: GDEPT on subcutaneous human PC3 tumours in nude mice; assay type: in vivo, mouse
Description: The ability of the PNP-based GDEPT system to suppress tumour growth in vivo was tested using subcutaneous human PC3 tumours grown in nude mice. Once the tumours were established (see example 1), on day 0 two groups of mice received one intratumoural injection of 1×10^10 VP of OAdV220. Two further groups received virus storage buffer only. Following this treatment all animals in one of the virus groups and all animals in one of the no-virus groups received a daily intraperitoneal (ip) injection of fludarabine (75 mg/m^2/day) for the next five days. Animal weights and tumour volumes were recorded twice weekly. The vector only group was compared to the nil virus, nil prodrug group. The group that received vector plus fludarabine was compared with the group that received fludarabine only. The OAdV220 vector alone caused a 30% reduction in tumour growth. However, the overall tumour growth suppression was increased to 71% when virus was used in conjunction with Fludarabine.
The cut off for response was arbitrarily taken as a tumour volume of 600 mm^3, half the maximum tumour volume (1200 mm^3) allowed before mice had to be culled because of tumour burden. By day 25, 13 of 14 tumours treated with OAdV220 plus fludarabine were in the responder category compared with 6 of 9 that received fludarabine only, and 9 of 12 which received virus only. […]

| SMILES | potency as a growth inhibitor relative to 6 MP [1] [fold] | reduction in mean tumour volume [2] [%] | decrease in tumour volume [3] [%] | decrease in tumour weight [3] [%] | responding tumours (tumour volume below 600 mm^3) ([4]; day 25) | responding tumours (tumour volume below 600 mm^3) ([4]; day 53) |
| --- | --- | --- | --- | --- | --- | --- |
| Nc1nc(F)nc2nc[nH]c12 [2FA, 2-fluoroadenine] | ~100 |  |  |  |  |  |
| Nc1nc(F)nc2c1ncn2[C@@H]1O[C@H](CO)[C@@H](O)[C@@H]1O [Fludarabine, fludarabine] |  | 17 | 12 | 17 | 6 of 9 | 0/5 |
